Assay results: patent US20020095030A1, “FLIP GENES AND FLIP PROTEINS” (priority 1997, published 2002)
Peptide text beside a SMILES is read from it. * marks the point of attachment. Cbz = O=C(OCc1ccccc1)*; CH2F = FC*

Tested on: 293T-cells
Assay: Apoptosis by over-expression of TRAMP in 293T cells (Cell Death Detection ELISA)
Assay type: cell-based, human
Settings: 25 μM in medium

COC(=O)C[C@H](NC(=O)[C@H](C)NC(=O)[C@@H](NC(=O)OCc1ccccc1)C(C)C)C(=O)CF [z-VAD-fmk] (Cbz-Val-Ala-Asp(OMe)-CH2F)
protection of TRAMP over expressing cells: 100%
